Structures can show the parent of a compound that is named as a salt.
Experiments:
[1] = test system: Mupirocin Resistant S. aureus (24 Passages); experiment: Chequerboard analysis of HT00800059 and mupirocin against mupirocin resistant S. aureus (24 passages); assay type: cell-based, Staphylococcus aureus
Protocol: (§1) Staphylococcus aureus (Oxford); Gram positive; Reference strain.
(§2) Log phase growth of mupirocin resistant Staphylococcus aureus (MSSA) was carried out as follows: • Bacteria were grown in 10 ml of nutrient broth (No. 2, (Oxoid)) overnight at 37° C. with continuous shaking at 120 rpm. The overnight cultures were diluted 1000× with iso-sensitest broth. The cultures were incubated at 37° C. with shaking for 1-2 hours to reach log CFU 6. Viability of the bacteria was estimated by colony forming unit (CFU) counts. From serial 10-fold dilutions of the experimental cultures, 100 μl samples were added to triplicate plates of nutrient agar plates (Oxoid) or blood agar plates (Oxoid). CFUs were counted after incubation of the plates at 37° C. for 24 hours.
(§3) Bacterial cultures: 10 μl of overnight cultures was added to 10 ml of fresh iso-sensitest broth to make the inoculation to 10^6 CFU/ml. 290 μl of the cell suspension was added to each well of the 96 well plate, which was incubated at 37° C. for 24 hours. 300 μl of iso-sensitest broth without bacterial cells were added to wells of the plate as a no bacterial control.
(§4) MIC determination: The optical density of the bacterial cells was read at 405 nm using a plate reader (Bio TEK). The MIC concentration was determined as the lowest concentration of drug which inhibits the bacterial growth.
(§5) Mupirocin was dissolved in DMSO to the stock concentration of 10 mg/ml. HT00800059 was dissolved in H2O to the stock solution 30.07 mg/ml.
(§6) Mupirocin (10 mg/ml) was firstly diluted to 3.84 mg/ml, then further diluted in a serial of 2 fold dilutions. HT00800059 (30.7 mg/ml) was performed in a serial of 2 fold dilutions.
(§7) This was followed by the addition of 280 μl of log phase culture at 10^6 CFU/ml to make the final concentrations of each drug as shown in Table 1 and Table 2.
(§8) In the above table, values in bold text are for HT00800059. Values in plain text are for mupirocin. The numbers shown in each well are μg/ml.
(§9) Incubation of the compounds with the bacterial suspension was carried out for 24 hours. The kill effects of the drug combination were measured by optical density reading at 405 nm with a plate reader (Bio TEK).
(§10) The fractional inhibitory concentration (FIC) index was carried out as following: (MIC of drug A, tested in combination)/(MIC of drug A, tested alone)+(MIC of drug B, tested in combination)/(MIC of drug B, tested alone). The interaction was defined as synergistic if the FIC index was <1, additive if the FIC index was =1 and antagonistic if the FIC index was >1.

[2] = test system: Mupirocin Resistant S. aureus (28 Passages); experiment: Chequerboard analysis of HT00800059 and mupirocin against mupirocin resistant S. aureus (28 passages); assay type: cell-based, Staphylococcus aureus
Protocol: as §1, §2, §3, §4, §5, §6, §7, §8, §9, §10

[3] = test system: log phase Staphylococcus aureus; experiment: Chequerboard analysis of HT00800059 and mupirocin against log phase Staphylococcus aureus; assay type: cell-based, Staphylococcus aureus (Oxford); details: for optical density reading at 405 nm: 24 hours
Protocol: Staphylococcus aureus (Oxford); Gram positive; Reference strain. Log phase growth of […] sensitive Staphylococcus aureus (MSSA) was carried out as follows: • Bacteria were grown in 10 ml of nutrient broth (No. 2, (Oxoid)) overnight at 37° C. with continuous shaking at 120 rpm. […] The cultures were incubated at 37° C. with shaking for 1-2 hours to reach log CFU 6. Viability of the bacteria was estimated by colony forming unit (CFU) counts. From serial 10-fold dilutions of the experimental cultures, 100 μl samples were added to triplicate plates of nutrient agar plates (Oxoid) or blood agar plates (Oxoid). CFUs were counted after incubation of the plates at 37° C. for 24 hours. […] 290 μl of the cell suspension was added to each well of the 96 well plate, which was incubated at 37° C. for 24 hours. […] MIC determination: The optical density of the bacterial cells was read at 405 nm using a plate reader (Bio TEK). The MIC concentration was determined as the lowest concentration of drug which inhibits the bacterial growth. […] HT00800059 was dissolved in H2O to the stock solution 30.07 mg/ml. […] HT00800059 (30.7 mg/ml) was performed in a serial of 2 fold dilutions. This was followed by the addition of 280 μl of log phase culture at 10^6 CFU/ml to make the final concentrations of each drug as shown. In the above table, values in bold text are for HT00800059. Values in plain text are for mupirocin. The numbers shown in each well are μg/ml. Incubation of the compounds with the bacterial suspension was carried out for 24 hours. The kill effects of the drug combination were measured by optical density reading at 405 nm with a plate reader (Bio TEK). The fractional inhibitory concentration (FIC) index was carried out as following: (MIC of drug A, tested in combination)/(MIC of drug A, tested alone)+(MIC of drug B, tested in combination)/(MIC of drug B, tested alone). The interaction was defined as synergistic if the FIC index was <1, additive if the FIC index was =1 and antagonistic if the FIC index was >1.

[4] = Staphylococcus aureus, read-out: alone MIC

CCCCOc1ccc(C(=O)CCN2CCCCC2)cc1 [HT00800059, dyclonine (1-(4-Butoxyphenyl)-3-(1-piperidinyl)-1-propanone) hydrochloride]
MIC [1, 4]: 512 µg/mL | MIC before combination ([1]; resistant strain 24 passages): 512 µg/mL | MIC post combination ([1]; resistant strain 24 passages): 64 µg/mL | HT00800059 MIC in combination ([1]; with mupirocin 8 μg/ml, 24 passages): 64 µg/mL | MIC [2, 4]: 512 µg/mL | MIC before combination ([2]; resistant strain 28 passages): 512 µg/mL | MIC post combination ([2]; resistant strain 28 passages): 64 µg/mL | HT00800059 MIC in combination ([2]; with mupirocin 32 μg/ml, 28 passages): 64 µg/mL | MIC [3, 4]: 512 µg/mL | MIC before combination ([3]; iso-sensitest broth): 512 µg/mL | MIC post combination ([3]; iso-sensitest broth): 64 µg/mL | optical density reading at 405 nm ([3]; iso-sensitest broth, HT00800059 1 μg/ml, mupirocin μg/ml: 1,0.5,0.25,0.125,0.0625,0.03125,0.015625,0): 1.49 | optical density reading at 405 nm ([3]; iso-sensitest broth, HT00800059 2 μg/ml, mupirocin μg/ml: 1,0.5,0.25,0.125,0.0625,0.03125,0.015625,0): 1.47 | optical density reading at 405 nm ([3]; iso-sensitest broth, HT00800059 4 μg/ml, mupirocin μg/ml: 1,0.5,0.25,0.125,0.0625,0.03125,0.015625,0): 1.46 | optical density reading at 405 nm ([3]; iso-sensitest broth, HT00800059 8 μg/ml, mupirocin μg/ml: 1,0.5,0.25,0.125,0.0625,0.03125,0.015625,0): 1.47 | optical density reading at 405 nm ([3]; iso-sensitest broth, HT00800059 16 μg/ml, mupirocin μg/ml: 1,0.5,0.25,0.125,0.0625,0.03125,0.015625,0): 1.52 | optical density reading at 405 nm ([3]; iso-sensitest broth, HT00800059 32 μg/ml, mupirocin μg/ml: 1,0.5,0.25,0.125,0.0625,0.03125,0.015625,0): 1.55 | optical density reading at 405 nm ([3]; iso-sensitest broth, HT00800059 64 μg/ml, mupirocin μg/ml: 1,0.5,0.25,0.125,0.0625,0.03125,0.015625,0): 1.34 | optical density reading at 405 nm ([3]; iso-sensitest broth, HT00800059 128 μg/ml, mupirocin μg/ml: 1,0.5,0.25,0.125,0.0625,0.03125,0.015625,0): 1.20 | optical density reading at 405 nm ([3]; iso-sensitest broth, HT00800059 256 μg/ml, mupirocin μg/ml: 1,0.5,0.25,0.125,0.0625,0.03125,0.015625,0): 1.09 | optical density reading at 405 nm ([3]; iso-sensitest broth, HT00800059 512 μg/ml, mupirocin μg/ml: 1,0.5,0.25,0.125,0.0625,0.03125,0.015625,0): 0.36 | optical density reading at 405 nm ([3]; iso-sensitest broth, HT00800059 1024 μg/ml, mupirocin μg/ml: 1,0.5,0.25,0.125,0.0625,0.03125,0.015625,0): 0.36 | MIC before combination ([3]; nutrient broth): 512 µg/mL | MIC post combination ([3]; nutrient broth): 64 µg/mL | optical density reading at 405 nm ([3]; nutrient broth, HT00800059 1 μg/ml, mupirocin μg/ml: 1,0.5,0.25,0.125,0.625 [sic],0.03125,0.15625 [sic],0): 0.858 | optical density reading at 405 nm ([3]; nutrient broth, HT00800059 2 μg/ml, mupirocin μg/ml: 1,0.5,0.25,0.125,0.625 [sic],0.03125,0.15625 [sic],0): 0.884 | optical density reading at 405 nm ([3]; nutrient broth, HT00800059 4 μg/ml, mupirocin μg/ml: 1,0.5,0.25,0.125,0.625 [sic],0.03125,0.15625 [sic],0): 0.885 | optical density reading at 405 nm ([3]; nutrient broth, HT00800059 8 μg/ml, mupirocin μg/ml: 1,0.5,0.25,0.125,0.625 [sic],0.03125,0.15625 [sic],0): 0.867 | optical density reading at 405 nm ([3]; nutrient broth, HT00800059 16 μg/ml, mupirocin μg/ml: 1,0.5,0.25,0.125,0.625 [sic],0.03125,0.15625 [sic],0): 0.840 | optical density reading at 405 nm ([3]; nutrient broth, HT00800059 32 μg/ml, mupirocin μg/ml: 1,0.5,0.25,0.125,0.625 [sic],0.03125,0.15625 [sic],0): 0.759 | optical density reading at 405 nm ([3]; nutrient broth, HT00800059 64 μg/ml, mupirocin μg/ml: 1,0.5,0.25,0.125,0.625 [sic],0.03125,0.15625 [sic],0): 0.721 | optical density reading at 405 nm ([3]; nutrient broth, HT00800059 128 μg/ml, mupirocin μg/ml: 1,0.5,0.25,0.125,0.625 [sic],0.03125,0.15625 [sic],0): 0.528 | optical density reading at 405 nm ([3]; nutrient broth, HT00800059 256 μg/ml, mupirocin μg/ml: 1,0.5,0.25,0.125,0.625 [sic],0.03125,0.15625 [sic],0): 0.524 | optical density reading at 405 nm ([3]; nutrient broth, HT00800059 512 μg/ml, mupirocin μg/ml: 1,0.5,0.25,0.125,0.625 [sic],0.03125,0.15625 [sic],0): 0.284 | optical density reading at 405 nm ([3]; nutrient broth, HT00800059 1024 μg/ml, mupirocin μg/ml: 1,0.5,0.25,0.125,0.625 [sic],0.03125,0.15625 [sic],0): 0.291 | HT00800059 MIC in combination ([3]; with mupirocin 0.125 μg/ml): 64 µg/mL

From US9789101B2, “Methods and compositions for treating microbial infection using pyrroloquinone” (HELPERBY THERAPEUTICS LIMITED, priority 2010, dated 2017)
